Calls of active or inactive are those of the source. The calls are words filed in the database; no cut-off is given here.
What was measured:
RAW264.7 [1] = assay: Antiinflammatory activity in LPS-induced mouse RAW264.7 macrophages assessed as suppression of TNF-alpha release pretreated at 10 uM for 2 hrs followed by stimulation with LPS for 22 hrs by ELISA; format: functional, cell-based
[2] = Cytotoxicity against human HL-7702 cells at 10 uM after 24 hrs by MTT assay; format: cell-based; settings: l02, 24 h
RAW264.7 [3] = assay: Antiinflammatory activity in LPS-induced mouse RAW264.7 macrophages assessed as suppression of COX-2 mRNA level pretreated at 10 uM for 2 hrs followed by stimulation with LPS for 6 hrs by RT-qPCR analysis; format: functional, cell-based
RAW264.7 [4] = assay: Antiinflammatory activity in LPS-induced mouse RAW264.7 macrophages assessed as suppression of IL-6 release pretreated for 2 hrs followed by stimulation with LPS for 22 hrs by ELISA; format: functional, cell-based
RAW264.7 [5] = assay: Antiinflammatory activity in LPS-induced mouse RAW264.7 macrophages assessed as suppression of TNF-alpha release pretreated for 2 hrs followed by stimulation with LPS for 22 hrs by ELISA; format: functional, cell-based
RAW264.7 [6] = assay: Antiinflammatory activity in LPS-induced mouse RAW264.7 macrophages assessed as suppression of IL-1beta mRNA level pretreated at 10 uM for 2 hrs followed by stimulation with LPS for 6 hrs by RT-qPCR analysis; format: functional, cell-based
[7] = test system: Peritoneal macrophage cell; assay: Antiinflammatory activity in LPS-induced ICR mouse peritoneal macrophages assessed as suppression of IL-6 release pretreated for 2 hrs followed by stimulation with LPS for 22 hrs by ELISA; format: functional, cell-based
RAW264.7 [8] = assay: Antiinflammatory activity in LPS-induced mouse RAW264.7 macrophages assessed as suppression of TNF-alpha mRNA level pretreated at 10 uM for 2 hrs followed by stimulation with LPS for 6 hrs by RT-qPCR analysis; format: functional, cell-based
[9] = test system: Peritoneal macrophage cell; assay: Antiinflammatory activity in LPS-induced ICR mouse peritoneal macrophages assessed as suppression of TNF-alpha release pretreated for 2 hrs followed by stimulation with LPS for 22 hrs by ELISA; format: functional, cell-based
RAW264.7 [10] = assay: Antiinflammatory activity in LPS-induced mouse RAW264.7 macrophages assessed as suppression of IL-6 mRNA level pretreated at 10 uM for 2 hrs followed by stimulation with LPS for 6 hrs by RT-qPCR analysis; format: functional, cell-based
[11] = Stability in phosphate buffer at pH 7.4 by UV-visible absorption analysis; format: physicochemical
[12] = molecular target: Transcription factor p65 (Mus musculus) (UniProt Q04207); assay: Inhibition of NFkappaB in LPS-induced mouse RAW264.7 cells assessed as increase in P65 in cytosol pretreated for 2 hrs followed by stimulation with LPS for 1 hr by Western blot analysis; format: cell-based
RAW264.7 [13] = assay: Antiinflammatory activity in LPS-induced mouse RAW264.7 macrophages assessed as suppression of COX-2 mRNA level pretreated for 2 hrs followed by stimulation with LPS for 6 hrs by RT-qPCR analysis; format: functional, cell-based
RAW264.7 [14] = assay: Inhibition of NFkappaB in LPS-induced mouse RAW264.7 cells assessed as suppression of binding of NF-kappabeta with DNA in nucleus pretreated for 2 hrs followed by stimulation with LPS for 1 hr by EMSA; format: cell-based
RAW264.7 [15] = assay: Antiinflammatory activity in LPS-induced mouse RAW264.7 macrophages assessed as suppression of IL-1beta mRNA level pretreated for 2 hrs followed by stimulation with LPS for 6 hrs by RT-qPCR analysis; format: functional, cell-based
[16] = molecular target: Transcription factor p65 (Mus musculus) (UniProt Q04207); assay: Inhibition of NFkappaB in LPS-induced mouse RAW264.7 cells assessed as decrease in P65 in nucleus pretreated for 2 hrs followed by stimulation with LPS for 1 hr by Western blot analysis; format: cell-based
RAW264.7 [17] = assay: Inhibition of LPS-induced IkappaB-alpha degradation in LPS-induced mouse RAW264.7 cells pretreated for 2 hrs followed by stimulation with LPS for 1 hr by Western blot analysis; format: cell-based
RAW264.7 [18] = assay: Antiinflammatory activity in LPS-induced mouse RAW264.7 macrophages assessed as suppression of IL-6 mRNA level pretreated for 2 hrs followed by stimulation with LPS for 6 hrs by RT-qPCR analysis; format: functional, cell-based
Mus musculus = assay: Antiinflammatory activity in LPS-induced C57BL/6 mouse assessed as survival rate pretreated at 10 mg/kg, iv for 15 mins followed by LPS stimulation measured for 7 days; format: functional; settings: C57BL/6, iv
RAW264.7 [19] = assay: Antiinflammatory activity in LPS-induced mouse RAW264.7 macrophages assessed as suppression of TNF-alpha mRNA level pretreated for 2 hrs followed by stimulation with LPS for 6 hrs by RT-qPCR analysis; format: functional, cell-based

Transcription factor p65 (Mus musculus), sequence (Q04207 whole entry): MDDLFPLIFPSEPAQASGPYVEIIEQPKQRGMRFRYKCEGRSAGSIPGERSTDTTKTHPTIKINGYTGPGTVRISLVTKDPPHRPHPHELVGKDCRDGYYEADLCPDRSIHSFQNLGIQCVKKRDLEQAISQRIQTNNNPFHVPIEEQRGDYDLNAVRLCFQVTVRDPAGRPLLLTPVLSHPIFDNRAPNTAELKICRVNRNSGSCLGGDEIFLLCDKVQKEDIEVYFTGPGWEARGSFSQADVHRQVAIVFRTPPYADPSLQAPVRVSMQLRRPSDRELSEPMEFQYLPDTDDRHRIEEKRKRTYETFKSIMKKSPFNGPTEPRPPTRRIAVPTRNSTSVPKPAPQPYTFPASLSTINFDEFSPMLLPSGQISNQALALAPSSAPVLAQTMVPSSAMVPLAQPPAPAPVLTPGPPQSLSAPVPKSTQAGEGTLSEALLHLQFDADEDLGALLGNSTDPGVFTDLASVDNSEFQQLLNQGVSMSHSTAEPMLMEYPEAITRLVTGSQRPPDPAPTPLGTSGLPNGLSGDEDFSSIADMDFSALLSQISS

SMILES: COc1cc(/C=C/C(=O)/C=C/c2ccc(C(F)(F)F)cc2C(F)(F)F)ccc1O
- inhibition (RAW264.7 [1]): Active
- Activity [2]: Non-toxic

SMILES: COc1cc(/C=C/C(=O)/C=C/c2ccc(OC(C)=O)cc2)ccc1O
- Activity [2]: Non-toxic

SMILES: COc1cc(/C=C/C(=O)/C=C/c2cccc(C(F)(F)F)c2F)ccc1O
- inhibition (RAW264.7 [1]): Active
- Activity [2]: Non-toxic

SMILES: COc1cc(/C=C/C(=O)/C=C/c2cc3c(cc2Br)OCO3)ccc1O
- inhibition (RAW264.7 [3]): Active
- inhibition (RAW264.7 [1]): Active
- inhibition (RAW264.7 [4]): Dose-dependent effect
- Activity [2]: Non-toxic
- inhibition (RAW264.7 [5]): Dose-dependent effect
- inhibition (RAW264.7 [6]): Active
- inhibition [7]: Dose-dependent effect
- inhibition (RAW264.7 [8]): Active
- inhibition [9]: Dose-dependent effect
- inhibition (RAW264.7 [10]): Active

SMILES: COc1cc(/C=C/C(=O)/C=C/c2cc(F)ccc2Br)ccc1O
- inhibition (RAW264.7 [1]): Active
- Activity [2]: Non-toxic

SMILES: C=CCOc1ccc(/C=C/C(=O)/C=C/c2ccc(O)c(OC)c2)cc1
- Activity [2]: Non-toxic

SMILES: COc1cc(/C=C/C(=O)/C=C/c2ccccc2C(F)(F)F)ccc1O
- inhibition (RAW264.7 [1]): Active
- Activity [2]: Non-toxic

SMILES: COc1cc(/C=C/C(=O)CC(=O)/C=C/c2ccc(O)c(OC)c2)ccc1O [CURCUMIN]
- inhibition (RAW264.7 [1]): Active
- Activity [2]: Non-toxic

SMILES: COc1cc(/C=C/C(=O)/C=C/c2cccc(O)c2)ccc1O
- inhibition (RAW264.7 [1]): Active
- Activity [2]: Non-toxic

SMILES: COc1cc(/C=C/C(=O)/C=C/c2ccccc2Br)ccc1O
- Activity [2]: Non-toxic

SMILES: COc1cc(/C=C/C(=O)/C=C/c2ccc(O)cc2Br)ccc1O
- inhibition (RAW264.7 [1]): Active
- Activity [2]: Non-toxic

SMILES: COc1cc(/C=C/C(=O)/C=C/c2ccc(C(F)(F)F)cc2)ccc1O
- inhibition (RAW264.7 [1]): Active
- Activity [2]: Non-toxic

SMILES: COc1cc(/C=C/C(=O)/C=C/c2cc(F)ccc2F)ccc1O
- inhibition (RAW264.7 [1]): Active
- Activity [2]: Non-toxic

SMILES: COc1cc(/C=C/C(=O)/C=C/c2c(F)cccc2Br)ccc1O
- Activity [2]: Non-toxic

SMILES: COc1cc(/C=C/C(=O)/C=C/c2ccc(OC)c(OC)c2OC)ccc1O
- inhibition (RAW264.7 [3]): Active
- inhibition (RAW264.7 [1]): Active
- Stability [11]: Stable
- inhibition (RAW264.7 [4]): Dose-dependent effect
- Activity [2]: Non-toxic
- inhibition (RAW264.7 [5]): Dose-dependent effect
- inhibition (RAW264.7 [6]): Active
- inhibition [7]: Dose-dependent effect
- inhibition (RAW264.7 [8]): Active
- inhibition [9]: Dose-dependent effect
- inhibition (RAW264.7 [10]): Active

SMILES: COc1cc(/C=C/C(=O)/C=C/c2cc(Br)ccc2Br)ccc1O
- inhibition (RAW264.7 [1]): Active
- Activity [2]: Non-toxic

SMILES: COc1cc(/C=C/C(=O)/C=C/c2ccc(Br)cc2)ccc1O
- Activity [2]: Non-toxic

SMILES: COc1ccc(/C=C/C(=O)/C=C/c2ccc(O)c(OC)c2)c(F)c1
- inhibition (RAW264.7 [3]): Active
- inhibition (RAW264.7 [1]): Active
- inhibition (RAW264.7 [4]): Dose-dependent effect
- Activity [2]: Non-toxic
- inhibition (RAW264.7 [5]): Dose-dependent effect
- inhibition (RAW264.7 [6]): Active
- inhibition [7]: Dose-dependent effect
- inhibition (RAW264.7 [8]): Active
- inhibition [9]: Dose-dependent effect
- inhibition (RAW264.7 [10]): Active

SMILES: COc1cc(/C=C/C(=O)/C=C/c2ccc([N+](=O)[O-])cc2[N+](=O)[O-])ccc1O
- Activity [2]: Non-toxic

SMILES: COc1ccc(F)c(/C=C/C(=O)/C=C/c2ccc(O)c(OC)c2)c1
- Activity [2]: Non-toxic

SMILES: COc1cc(/C=C/C(=O)/C=C/c2ccc(C(C)C)cc2)ccc1O
- inhibition (RAW264.7 [1]): Active
- Activity [2]: Non-toxic

SMILES: COc1cc(/C=C/C(=O)/C=C/c2cccc(Br)c2)ccc1O
- inhibition (RAW264.7 [1]): Active
- Activity [2]: Non-toxic

SMILES: COc1cc(/C=C/C(=O)/C=C/c2cccc(Cl)c2Cl)ccc1O
- inhibition (RAW264.7 [1]): Active
- Activity [2]: Non-toxic

SMILES: COc1cc(/C=C/C(=O)/C=C/c2ccc(OC)c(Br)c2)ccc1O
- inhibition (RAW264.7 [3]): Active
- inhibition (RAW264.7 [1]): Active
- inhibition (RAW264.7 [4]): Dose-dependent effect
- Activity [2]: Non-toxic
- inhibition (RAW264.7 [5]): Dose-dependent effect
- inhibition (RAW264.7 [6]): Active
- inhibition [7]: Dose-dependent effect
- inhibition (RAW264.7 [8]): Active
- inhibition [9]: Dose-dependent effect
- inhibition (RAW264.7 [10]): Active

SMILES: COc1cc(/C=C/C(=O)/C=C/c2ccc(Br)c(F)c2)ccc1O
- Activity [2]: Non-toxic

SMILES: COc1cc(/C=C/C(=O)/C=C/c2ccccc2[N+](=O)[O-])ccc1O
- inhibition (RAW264.7 [3]): Active
- Activity [12]: Active
- inhibition (RAW264.7 [13]): Dose-dependent effect
- inhibition (RAW264.7 [1]): Active
- Stability [11]: Stable
- inhibition (RAW264.7 [14]): Active
- inhibition (RAW264.7 [4]): Dose-dependent effect
- inhibition (RAW264.7 [15]): Dose-dependent effect
- Activity [16]: Active
- Activity [2]: Non-toxic
- inhibition (RAW264.7 [5]): Dose-dependent effect
- inhibition (RAW264.7 [6]): Active
- inhibition [7]: Dose-dependent effect
- Activity (RAW264.7 [17]): Dose-dependent effect
- inhibition (RAW264.7 [8]): Active
- inhibition (RAW264.7 [18]): Dose-dependent effect
- survival at 10 mg/kg (Mus musculus): 55%
- inhibition (RAW264.7 [19]): Dose-dependent effect
- inhibition [9]: Dose-dependent effect
- inhibition (RAW264.7 [10]): Active

SMILES: COc1cc(/C=C/C(=O)/C=C/c2cc([N+](=O)[O-])ccc2F)ccc1O
- Activity [2]: Non-toxic

SMILES: COc1cc(/C=C/C(=O)/C=C/c2ccc3ccccc3c2)ccc1O
- Activity [2]: Non-toxic

SMILES: COc1cc(/C=C/C(=O)/C=C/c2c(C)cc(C)cc2C)ccc1O
- inhibition (RAW264.7 [3]): Active
- inhibition (RAW264.7 [1]): Active
- inhibition (RAW264.7 [4]): Dose-dependent effect
- Activity [2]: Non-toxic
- inhibition (RAW264.7 [5]): Dose-dependent effect
- inhibition (RAW264.7 [6]): Active
- inhibition [7]: Dose-dependent effect
- inhibition (RAW264.7 [8]): Active
- inhibition [9]: Dose-dependent effect
- inhibition (RAW264.7 [10]): Active

SMILES: COc1ccc(Br)c(/C=C/C(=O)/C=C/c2ccc(O)c(OC)c2)c1
- inhibition (RAW264.7 [1]): Active
- Activity [2]: Non-toxic

SMILES: COc1cc(/C=C/C(=O)/C=C/c2ccccc2Cl)ccc1O
- Activity [2]: Non-toxic

SMILES: COc1cc(/C=C/C(=O)/C=C/c2ccc3c(c2)CCN3)ccc1O
- Activity [2]: Non-toxic
